This is an account of results in ChEMBL document CHEMBL4715706, “Discovery of Benzotriazolo[4,3-d][1,4]diazepines as Orally Active Inhibitors of BET Bromodomains” (ACS Med Chem Lett, 2016).

The source made the active and inactive calls. The calls are words filed in the database; no cut-off is given here. Some results are limits rather than exact numbers.

Assay [1] concerns the target T1, Bromodomain and PHD finger-containing protein 3 (Homo sapiens, UniProt Q9ULD4).
T1 sequence (Q9ULD4 whole entry): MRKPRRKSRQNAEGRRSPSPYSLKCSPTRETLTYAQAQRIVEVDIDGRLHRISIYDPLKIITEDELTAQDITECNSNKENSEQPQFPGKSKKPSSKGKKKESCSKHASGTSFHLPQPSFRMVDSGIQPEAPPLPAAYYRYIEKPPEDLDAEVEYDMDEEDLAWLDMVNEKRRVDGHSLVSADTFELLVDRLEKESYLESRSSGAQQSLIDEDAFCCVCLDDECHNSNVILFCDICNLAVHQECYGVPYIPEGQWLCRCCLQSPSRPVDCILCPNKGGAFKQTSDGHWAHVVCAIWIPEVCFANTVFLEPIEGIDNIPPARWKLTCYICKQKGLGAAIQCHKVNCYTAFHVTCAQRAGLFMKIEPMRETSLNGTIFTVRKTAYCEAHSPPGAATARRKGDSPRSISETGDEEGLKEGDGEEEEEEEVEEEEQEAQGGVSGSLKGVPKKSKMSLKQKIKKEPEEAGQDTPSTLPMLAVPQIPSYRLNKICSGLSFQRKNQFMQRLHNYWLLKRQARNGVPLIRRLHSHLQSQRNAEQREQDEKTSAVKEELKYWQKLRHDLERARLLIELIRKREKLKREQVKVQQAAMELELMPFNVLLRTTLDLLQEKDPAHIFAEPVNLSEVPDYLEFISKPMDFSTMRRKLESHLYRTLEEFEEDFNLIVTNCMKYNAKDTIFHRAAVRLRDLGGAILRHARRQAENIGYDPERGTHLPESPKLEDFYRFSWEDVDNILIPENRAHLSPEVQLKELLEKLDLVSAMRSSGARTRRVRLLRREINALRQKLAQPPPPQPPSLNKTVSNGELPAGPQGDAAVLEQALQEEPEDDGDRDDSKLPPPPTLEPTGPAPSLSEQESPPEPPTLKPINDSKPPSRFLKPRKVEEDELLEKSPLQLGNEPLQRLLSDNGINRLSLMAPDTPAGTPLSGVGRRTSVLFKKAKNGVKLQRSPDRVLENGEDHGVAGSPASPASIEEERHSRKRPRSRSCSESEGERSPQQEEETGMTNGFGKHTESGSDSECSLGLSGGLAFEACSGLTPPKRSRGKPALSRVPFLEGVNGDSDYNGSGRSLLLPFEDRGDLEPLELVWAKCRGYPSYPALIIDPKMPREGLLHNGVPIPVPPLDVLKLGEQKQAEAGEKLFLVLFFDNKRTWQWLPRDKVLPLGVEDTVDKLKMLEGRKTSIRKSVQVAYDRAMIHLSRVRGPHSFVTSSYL
Put plainly: Inhibition of BRPF3 (unknown origin) measured after 70 mins by TR-FRET assay. Background: In TR-FRET formats the signal depends on donor and acceptor labels being close together.

The next assay relates to Mus musculus. Description: In vivo inhibition of BET in BALB/c mouse assessed as suppression of LPS-induced IL-6 level in plasma at 15 mg/kg, po pretreated with compound followed by LPS challenge and measured after 2 hrs by ELISA. It is filed as functional, organism-based. (ELISA stands for enzyme-linked immunosorbent assay.)

In general, IC50 refers to the point on the concentration scale where inhibition reaches its midpoint. Lower therefore signals higher potency. `Cc1nnc2n1-c1ccc(-c3ccc(N)nc3)cc1N(c1ccc(Cl)cc1)C[C@H]2C`: the half-maximal inhibitory concentration (IC50) in assay [1] was above 15 µM. Also, the inhibition entry in the assay on Mus musculus is “Active”.
